Source: ChEMBL document CHEMBL1153221, “The identification of structurally novel, selective, orally bioavailable positive modulators of mGluR2” (Bioorg Med Chem Lett, 2010)
≈ marks a conversion by molar mass, not a printed value.

What was measured:
[1] = molecular target: T1, Metabotropic glutamate receptor 2 (Homo sapiens, UniProt Q14416); assay: Agonist activity at human mGluR2 expressed in CHO cells co-expressing Ga16 G-protein assessed as glutamate-induced response by FLIPR assay; format: functional, cell-based
Target sequence in this assay (Q14416 whole entry): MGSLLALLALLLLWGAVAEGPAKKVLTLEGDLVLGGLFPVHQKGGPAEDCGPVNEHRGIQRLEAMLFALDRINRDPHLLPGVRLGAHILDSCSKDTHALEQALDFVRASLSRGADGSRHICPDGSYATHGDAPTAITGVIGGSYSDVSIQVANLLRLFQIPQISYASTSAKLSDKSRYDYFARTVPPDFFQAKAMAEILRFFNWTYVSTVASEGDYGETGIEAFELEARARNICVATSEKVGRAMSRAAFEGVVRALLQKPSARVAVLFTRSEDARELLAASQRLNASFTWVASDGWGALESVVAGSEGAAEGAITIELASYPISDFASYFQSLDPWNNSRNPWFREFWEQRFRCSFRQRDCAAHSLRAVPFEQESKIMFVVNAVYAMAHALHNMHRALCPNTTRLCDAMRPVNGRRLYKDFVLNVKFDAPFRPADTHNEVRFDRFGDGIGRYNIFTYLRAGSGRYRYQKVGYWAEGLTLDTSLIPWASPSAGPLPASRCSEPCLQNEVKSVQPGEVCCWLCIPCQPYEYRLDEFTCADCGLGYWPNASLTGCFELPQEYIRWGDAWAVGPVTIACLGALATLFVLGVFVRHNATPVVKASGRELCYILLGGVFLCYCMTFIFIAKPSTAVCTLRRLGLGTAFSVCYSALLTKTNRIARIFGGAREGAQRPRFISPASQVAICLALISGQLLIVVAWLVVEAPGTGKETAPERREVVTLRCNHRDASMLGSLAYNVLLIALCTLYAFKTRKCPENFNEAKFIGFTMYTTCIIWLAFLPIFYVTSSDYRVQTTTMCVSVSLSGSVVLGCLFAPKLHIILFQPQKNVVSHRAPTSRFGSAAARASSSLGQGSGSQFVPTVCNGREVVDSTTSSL

[2] = molecular target: T1, Metabotropic glutamate receptor 2; assay: Positive modulation of human mGluR2 expressed in CHO cells co-expressing Ga16 G-protein assessed as glutamate-induced response by FLIPR assay; format: cell-based
Target sequence in this assay (Q14416 whole entry): as above

D(4) dopamine receptor = molecular target: T2, D(4) dopamine receptor (Homo sapiens, UniProt P21917); assay: Antagonist activity at human D4 receptor expressed in HEK293 cells co-expressing Gqo5 G-protein by FLIPR assay; format: functional, cell-based
T2 sequence (P21917 whole entry): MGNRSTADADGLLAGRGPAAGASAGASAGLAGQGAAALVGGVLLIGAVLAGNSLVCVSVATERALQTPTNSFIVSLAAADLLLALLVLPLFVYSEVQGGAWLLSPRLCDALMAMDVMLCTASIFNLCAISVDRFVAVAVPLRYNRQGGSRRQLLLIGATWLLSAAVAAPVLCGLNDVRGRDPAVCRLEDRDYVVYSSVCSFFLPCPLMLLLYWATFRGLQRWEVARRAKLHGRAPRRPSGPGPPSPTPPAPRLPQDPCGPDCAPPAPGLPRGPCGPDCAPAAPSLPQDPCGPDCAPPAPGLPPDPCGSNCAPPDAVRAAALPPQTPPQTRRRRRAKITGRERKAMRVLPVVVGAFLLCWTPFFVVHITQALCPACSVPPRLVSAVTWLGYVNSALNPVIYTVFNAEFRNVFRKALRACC

[3] = molecular target: T1, Metabotropic glutamate receptor 2; assay: Positive modulation of human mGluR2 expressed in CHO cells co-expressing Ga16 G-protein assessed as glutamate-induced response by FLIPR assay relative to glutamate; format: cell-based
Target sequence in this assay (Q14416 19-872 limits assumed): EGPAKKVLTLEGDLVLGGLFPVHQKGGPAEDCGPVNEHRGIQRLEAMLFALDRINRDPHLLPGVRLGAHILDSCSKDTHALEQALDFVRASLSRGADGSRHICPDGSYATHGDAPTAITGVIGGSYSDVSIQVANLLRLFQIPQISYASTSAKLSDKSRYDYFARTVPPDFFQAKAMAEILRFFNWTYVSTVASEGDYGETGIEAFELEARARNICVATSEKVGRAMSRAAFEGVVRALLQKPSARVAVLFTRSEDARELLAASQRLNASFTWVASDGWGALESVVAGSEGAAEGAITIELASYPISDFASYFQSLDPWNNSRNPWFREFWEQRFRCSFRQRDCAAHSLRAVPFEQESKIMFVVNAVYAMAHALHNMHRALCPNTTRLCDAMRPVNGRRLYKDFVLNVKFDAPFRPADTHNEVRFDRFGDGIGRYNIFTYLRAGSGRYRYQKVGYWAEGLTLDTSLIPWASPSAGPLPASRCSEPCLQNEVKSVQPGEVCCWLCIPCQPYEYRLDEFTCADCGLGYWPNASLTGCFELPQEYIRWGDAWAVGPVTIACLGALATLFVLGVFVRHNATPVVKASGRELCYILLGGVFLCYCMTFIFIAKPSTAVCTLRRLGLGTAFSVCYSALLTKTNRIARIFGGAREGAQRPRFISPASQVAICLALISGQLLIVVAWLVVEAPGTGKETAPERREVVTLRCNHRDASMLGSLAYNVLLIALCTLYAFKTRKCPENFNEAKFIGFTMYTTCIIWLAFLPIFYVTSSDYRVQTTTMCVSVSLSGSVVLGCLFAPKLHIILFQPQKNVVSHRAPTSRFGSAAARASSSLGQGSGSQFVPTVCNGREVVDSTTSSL

D(2) dopamine receptor = D(2) dopamine receptor (Homo sapiens, UniProt P14416); assay: Antagonist activity at human D2 receptor expressed in CHO cells co-expressing G0 by [35S]GTPgammaS binding assay; format: functional, cell-based
D(3) dopamine receptor = D(3) dopamine receptor (Homo sapiens, UniProt P35462); assay: Antagonist activity at human D3 receptor expressed in CHO cells co-expressing G0 by [35S]GTPgammaS binding assay; format: functional, cell-based
[4] = molecular target: T3, Metabotropic glutamate receptor 5 (Homo sapiens, UniProt P41594); assay: Positive modulation of mGluR5
[5] = molecular target: T3, Metabotropic glutamate receptor 5; assay: Agonist activity at mGluR5; format: functional
[6] = molecular target: T4, Metabotropic glutamate receptor 1 (Homo sapiens, UniProt Q13255); assay: Antagonist activity at mGluR1; format: functional
[7] = Solubility of the compound; format: physicochemical
[8] = molecular target: T4, Metabotropic glutamate receptor 1; assay: Agonist activity at mGluR1; format: functional
[9] = molecular target: T3, Metabotropic glutamate receptor 5; assay: Antagonist activity at mGluR5; format: functional
[10] = Inhibition of field excitatory postsynaptic potential in Wistar rat medial perforant path dentate gyrus after 20 mins by electrophysiological assay in presence of 10 uM GSK1331268
[11] = Inhibition of field excitatory postsynaptic potential in Wistar rat medial perforant path dentate gyrus after 20 mins by electrophysiological assay; format: functional, tissue-based

Sequence of D(2) dopamine receptor (P14416 whole entry): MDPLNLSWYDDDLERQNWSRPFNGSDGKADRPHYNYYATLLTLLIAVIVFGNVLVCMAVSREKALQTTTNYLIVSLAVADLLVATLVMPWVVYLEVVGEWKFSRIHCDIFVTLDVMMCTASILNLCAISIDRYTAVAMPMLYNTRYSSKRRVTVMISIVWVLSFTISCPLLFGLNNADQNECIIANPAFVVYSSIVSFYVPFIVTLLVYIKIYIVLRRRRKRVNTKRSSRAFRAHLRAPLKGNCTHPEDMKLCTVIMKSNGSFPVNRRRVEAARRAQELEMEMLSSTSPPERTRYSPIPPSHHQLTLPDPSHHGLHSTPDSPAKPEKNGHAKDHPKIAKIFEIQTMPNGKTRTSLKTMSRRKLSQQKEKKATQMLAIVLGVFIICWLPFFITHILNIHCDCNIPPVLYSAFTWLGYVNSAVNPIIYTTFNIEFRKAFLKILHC
Sequence of D(3) dopamine receptor (P35462 whole entry): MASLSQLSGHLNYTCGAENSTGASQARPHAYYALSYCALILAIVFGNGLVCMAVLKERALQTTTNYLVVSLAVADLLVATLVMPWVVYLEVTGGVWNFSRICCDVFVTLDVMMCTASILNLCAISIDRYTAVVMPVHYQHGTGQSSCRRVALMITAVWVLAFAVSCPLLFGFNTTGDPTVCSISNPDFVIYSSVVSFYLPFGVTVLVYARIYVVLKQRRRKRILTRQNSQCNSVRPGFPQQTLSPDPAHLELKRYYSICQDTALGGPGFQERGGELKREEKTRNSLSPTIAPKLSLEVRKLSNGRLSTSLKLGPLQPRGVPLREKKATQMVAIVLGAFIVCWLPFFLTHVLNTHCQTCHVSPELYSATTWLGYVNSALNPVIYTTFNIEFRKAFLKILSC
T3 sequence (P41594 whole entry): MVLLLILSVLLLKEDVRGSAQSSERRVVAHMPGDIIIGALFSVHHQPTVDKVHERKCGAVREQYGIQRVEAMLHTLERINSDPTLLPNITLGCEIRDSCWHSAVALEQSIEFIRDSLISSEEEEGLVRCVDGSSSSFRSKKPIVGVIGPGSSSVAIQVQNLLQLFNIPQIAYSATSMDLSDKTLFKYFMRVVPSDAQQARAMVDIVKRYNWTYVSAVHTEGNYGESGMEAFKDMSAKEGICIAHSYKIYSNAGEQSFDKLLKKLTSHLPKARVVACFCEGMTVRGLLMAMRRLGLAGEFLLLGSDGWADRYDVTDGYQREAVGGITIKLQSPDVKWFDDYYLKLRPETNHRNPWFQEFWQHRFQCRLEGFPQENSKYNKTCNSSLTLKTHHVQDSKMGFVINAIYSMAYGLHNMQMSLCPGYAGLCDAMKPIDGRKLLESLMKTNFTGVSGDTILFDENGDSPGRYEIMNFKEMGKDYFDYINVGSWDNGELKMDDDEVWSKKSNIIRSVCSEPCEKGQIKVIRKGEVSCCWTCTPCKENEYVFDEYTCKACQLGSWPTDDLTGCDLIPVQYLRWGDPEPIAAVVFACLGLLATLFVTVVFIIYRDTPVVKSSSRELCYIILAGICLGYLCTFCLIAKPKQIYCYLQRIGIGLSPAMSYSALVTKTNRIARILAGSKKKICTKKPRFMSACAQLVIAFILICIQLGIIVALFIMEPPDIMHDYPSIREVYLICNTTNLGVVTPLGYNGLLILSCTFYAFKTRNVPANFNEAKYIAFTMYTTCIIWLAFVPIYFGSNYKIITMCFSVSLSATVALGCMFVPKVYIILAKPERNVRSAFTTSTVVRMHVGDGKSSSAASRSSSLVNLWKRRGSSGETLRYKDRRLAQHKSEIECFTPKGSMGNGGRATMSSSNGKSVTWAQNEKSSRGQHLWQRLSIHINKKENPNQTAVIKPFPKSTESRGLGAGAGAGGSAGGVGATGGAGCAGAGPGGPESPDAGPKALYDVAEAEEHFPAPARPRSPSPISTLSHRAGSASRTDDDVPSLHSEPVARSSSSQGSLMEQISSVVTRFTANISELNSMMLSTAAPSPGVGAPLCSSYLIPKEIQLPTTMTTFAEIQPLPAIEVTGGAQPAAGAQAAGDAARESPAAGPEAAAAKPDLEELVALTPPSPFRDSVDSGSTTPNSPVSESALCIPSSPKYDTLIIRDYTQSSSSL
T4 sequence (Q13255 whole entry): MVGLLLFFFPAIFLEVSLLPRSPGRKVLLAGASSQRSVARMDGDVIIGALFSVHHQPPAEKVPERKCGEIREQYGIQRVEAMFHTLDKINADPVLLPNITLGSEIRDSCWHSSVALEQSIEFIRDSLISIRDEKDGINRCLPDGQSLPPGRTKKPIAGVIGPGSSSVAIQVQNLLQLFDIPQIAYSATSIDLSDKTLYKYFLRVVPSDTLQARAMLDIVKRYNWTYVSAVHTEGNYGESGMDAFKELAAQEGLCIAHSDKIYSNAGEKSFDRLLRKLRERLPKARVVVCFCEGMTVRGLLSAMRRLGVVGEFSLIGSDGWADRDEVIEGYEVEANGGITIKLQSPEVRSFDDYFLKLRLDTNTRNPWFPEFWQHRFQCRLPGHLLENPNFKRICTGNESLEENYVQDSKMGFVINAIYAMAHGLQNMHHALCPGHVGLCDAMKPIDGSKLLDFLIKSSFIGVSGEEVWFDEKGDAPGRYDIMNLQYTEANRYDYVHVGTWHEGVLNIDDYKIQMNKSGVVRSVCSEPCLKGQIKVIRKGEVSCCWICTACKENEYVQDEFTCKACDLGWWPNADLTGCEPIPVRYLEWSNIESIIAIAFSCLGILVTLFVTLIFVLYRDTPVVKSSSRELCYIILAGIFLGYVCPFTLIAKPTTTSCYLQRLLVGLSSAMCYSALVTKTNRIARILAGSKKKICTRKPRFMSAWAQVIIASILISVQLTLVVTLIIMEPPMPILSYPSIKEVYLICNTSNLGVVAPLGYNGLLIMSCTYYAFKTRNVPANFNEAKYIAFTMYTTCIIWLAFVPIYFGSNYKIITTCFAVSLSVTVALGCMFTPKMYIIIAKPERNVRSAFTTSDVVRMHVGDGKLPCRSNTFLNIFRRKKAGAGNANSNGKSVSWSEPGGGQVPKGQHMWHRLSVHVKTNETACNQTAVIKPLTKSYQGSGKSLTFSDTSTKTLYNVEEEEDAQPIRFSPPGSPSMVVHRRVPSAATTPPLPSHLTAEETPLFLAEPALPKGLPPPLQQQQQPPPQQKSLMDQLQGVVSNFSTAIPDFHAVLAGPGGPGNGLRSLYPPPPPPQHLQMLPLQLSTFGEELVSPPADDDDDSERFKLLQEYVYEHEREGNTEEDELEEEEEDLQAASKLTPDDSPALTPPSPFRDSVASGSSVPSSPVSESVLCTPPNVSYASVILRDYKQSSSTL

SMILES	EC50 [1]	EC50 [2]	Ki (D(4) dopamine receptor)	Emax [3]	Ki (D(2) dopamine receptor)	Ki (D(3) dopamine receptor)	also measured
Cn1c(CN2CCC(c3ccccn3)CC2)nc2ccccc21	> 15800 nM	> 3160 nM	–	–	–	–	–
Cn1c(CN2CCC(c3cccc(C(F)(F)F)c3)CC2)nc2ccccc21	2510 nM	100 nM	251 nM	94%	126 nM	> 10000 nM	–
Cn1c(CN2CCC(c3ccccc3F)CC2)nc2ccccc21	3980 nM	126 nM	–	–	39.8 nM	–	EC50 [4]: > 15800 nM; EC50 [5]: > 15800 nM; EC50 [6]: > 15800 nM; solubility [7]: 31 µg/mL (≈ 95.9 µM); EC50 [8]: > 15800 nM; EC50 [9]: > 15800 nM
Cn1c(CN2CCN(c3ncc(C(F)(F)F)cc3Cl)CC2)nc2ccc(F)cc21	–	126 nM	–	–	–	–	–
Cn1c(CN2CCN(c3ccccc3C(F)(F)F)CC2)nc2ccccc21	> 15800 nM	316 nM	631 nM	84%	–	–	–
Cn1c(CN2CCN(c3ccc(C(F)(F)F)cn3)CC2)nc2ccccc21	6310 nM	501 nM	1000 nM	81%	> 10000 nM	> 10000 nM	–
Cn1c(CN2CCN(c3ccc(Cl)cc3F)CC2)nc2ccccc21	2510 nM	126 nM	251 nM	69%	–	–	–
Cn1c(CN2CCN(c3ccc(C#N)cc3)CC2)nc2ccccc21	–	> 12600 nM	–	–	–	–	–
Cn1c(CN2CCN(c3ncc(C(F)(F)F)cc3Cl)CC2)nc2cc(C(F)(F)F)ccc21	–	2000 nM	–	–	–	–	–
Cn1c(CN2CCN(c3ccccc3F)CC2)nc2ccccc21	6310 nM	794 nM	–	64%	–	–	–
Cn1c(CN2CCN(c3nc4ccccc4s3)CC2)nc2ccccc21	2000 nM	316 nM	794 nM	88%	> 10000 nM	> 10000 nM	–
Cn1c(CN2CCC(c3ccc(Cl)cc3)CC2)nc2ccccc21	5010 nM	79.4 nM	63.1 nM	91%	15.8 nM	316 nM	–
COc1ccccc1Oc1ccc(N(Cc2cccnc2)S(=O)(=O)CC(F)(F)F)cc1	–	–	–	–	–	–	pEC50 [10]: 7.364; pEC50 [11]: 6.864
FC(F)(F)c1cnc(N2CCN(Cc3nc4ccccc4[nH]3)CC2)c(Cl)c1	–	12600 nM	–	–	–	–	–
Cn1c(CN2CCC(c3nsc4ccccc34)CC2)nc2ccccc21	2510 nM	200 nM	200 nM	84%	79.4 nM	3980 nM	–
Cn1c(CN2CCC(c3cccc(Cl)c3)CC2)nc2ccccc21	3980 nM	100 nM	251 nM	92%	39.8 nM	1580 nM	–
Cn1c(CN2CCN(c3ccc(C(F)(F)F)cc3)CC2)nc2ccccc21	6310 nM	200 nM	398 nM	84%	> 10000 nM	> 10000 nM	–
COCCn1c(CN2CCN(c3ncc(Cl)cn3)CC2)nc2ccccc21	–	501 nM	–	–	–	–	–
Clc1cnc(N2CCN(Cc3nc4ccccc4[nH]3)CC2)nc1	–	12600 nM	–	–	–	–	–
